Like-named read-outs stand apart in the source and are kept apart here. Numbered stars: 1 amine (or outer) side, 2 acyl side, 3 side chain; on linkers, the order of the positions; unused ones are H or OH. Square brackets hold non-standard residues; d marks the D form. Side chains are listed from the residue outwards. Peptide text beside a SMILES is read from it. * marks the point of attachment. X1 = CCCCCCCCCCCCCCCC(=O)N[C@@H](CCC(=O)N[C@@H](CCC(=O)N[C@@H](CCC(=O)NCCCOCCOCCOCCCNC(=O)CCC(=O)NCCCOCCOCCOCCCNC(=O)CCC(=O)NCCCOCCOCCOCCCN*)C(=O)O)C(=O)O)C(=O)O; Suc = O=C(CCC(=O)[*:2])[*:1]; αMeK = C[C@](N)(CCCCN)C(=O)O; Aib = CC(C)(N)C(=O)O
Key:
Assay type in all cases: in vivo, human
[1] = Phase 1 single dose study in severe renal impaired and normal renal function subjects: pharmacokinetics; conditions: for AUC(0-inf) / Cmax: human, in vivo, sc, 4 mg, single 4.0 mg sc; for AUC(0-inf): read-out: AUCINF_pred
Description: (§1) This study is an open label, phase 1, multi-centre, single dose study in severe renal impaired subjects and in matched subjects with normal renal function. In this preliminary evaluation, five subjects with severe renal impairment and two subjects with normal renal function were included.
This study is a Phase 1, multi-center, single dose study in severe renal impaired subjects and in matched subjects with normal renal function. Five subjects with severe renal impairment and two subjects with normal renal function were included. PK sampling was performed predose and at 1, 2, 3, 4, 6, 8, 10, 12, 24, 48, 72, 96, and 120 h postdose.

[2] = Phase 1 SAD/MAD study in healthy volunteers: safety and tolerability
Method: (§2) Described in this Example is a Phase 1, randomized, double-blind, pacebo controlled trial for assessing safety, tolerability, PK, and PD of a Relaxin Agonist (i.e., Relaxin peptide analogue of SEQ ID NO: 3).
(§3) The SAD part A was a SAD study with a total of 40 subjects (n=8 per cohort; 6 to Relaxin Agonist and 2 to placebo) to be enrolled sequentially in up to 5 cohorts (Cohorts A1 to A5). Four cohorts received a dose via SC injection only and 1 cohort (Cohort A2, 4.0 mg) was dosed via both SC and IV injection, with at least 2-week washout period between SC and IV injections. The 4.0 mg dosing cohort (Cohort A2) received the IV dose after the 12.0 mg SC cohort (Cohort A3) was completed. Subjects in each cohort received 1 of 5 dose levels (1.0 mg, 4.0 mg, 12.0 mg, 24.0 mg, and 48.0 mg) or matching placebo as follows: • Cohort A1: a single SC dose of 1.0 mg Relaxin Agonist (n=6) or matching placebo (n=2) • Cohort A2: Period 1 a single SC dose of 4.0 mg Relaxin Agonist (n=6) or matching placebo (n=2) • Cohort A2: Period 2 a single 15-min IV dose of 4.0 mg Relaxin Agonist (n=6) or matching placebo (n=2) • Cohort A3: a single SC dose of 12.0 mg Relaxin Agonist (n=6) or matching placebo (n=2) • Cohort A4: a single SC dose of 24.0 mg Relaxin Agonist (n=6) or matching placebo (n=2) • Cohort A5: a single SC dose of 48.0 mg Relaxin Agonist (n=6) or matching placebo (n=2)
In this first-in-human study, the subjects in all SAD cohorts were dosed according to a sentinel dosing design to ensure optimal safety. This meant that initially 2 subjects were dosed: 1 subject with Relaxin Agonist and 1 subject with placebo. If at the lowest dose level (Cohort A1) the safety and tolerability results of the first 48 h following dosing for the initial subjects was acceptable to the Investigator, the other 6 subjects (5 active and 1 placebo) were to be dosed. In Cohorts A2 to A5, the safety and tolerability results of the first 24 h following dose administration were evaluated in the first 2 subjects before the remainder of the subjects in that cohort are dosed.
(§4) In the MAD part B of the study, a total of 24 subjects (n=8 per cohort; 6 to Relaxin Agonist and 2 to placebo) were enrolled sequentially (Cohorts B1 to B3) with subjects within a cohort being enrolled in a parallel fashion. Cohorts B1 to B3 receive one of 3 SC doses (5.0 mg, 15.0 mg, 30.0 mg once daily [QD]) as follows: • Cohort B1: 5.0 mg SC Relaxin Agonist (n=6) or matching placebo (n=2) QD for 14 days • Cohort B2: 15.0 mg SC Relaxin Agonist (n=6) or matching placebo (n=2) QD for 14 days • Cohort B3: 30.0 mg SC Relaxin Agonist (n=6) or matching placebo (n=2) QD for 14 days

[3] = Phase 1 single dose study in severe renal impaired and normal renal function subjects: safety; conditions: single sc 4.0 mg
Description: as §1

[4] = Phase 1 SAD/MAD study in healthy volunteers: pharmacokinetics; conditions: for AUC(0-t): read-out: AUC0-24
Method: as §2, §3, §4
After 24 mg and 48 mg sc doses, higher than dose-proportional exposures were observed (approximately 15% higher than expected).
Therefore, after sc administration, the absolute bioavailability (F) is approximately 0.76.
Preliminary PK results after single and multiple ascending doses of Relaxin Agonist administered subcutaneously (sc) are summarized in Table 6. For all dose regimens (5 mg, 15 mg, and 30 mg), an accumulation of approximately 2.6-fold was observed on Day 14.

[5] = severe renal impaired group compared to normal group and SAD 4 mg group
[6] = part B: once daily sc 5.0, 15.0, 30 mg for 14 days

For `CCCCCCCCCCCCCCCC(=O)N[C@@H](CCC(=O)N[C@@H](CCC(=O)N[C@@H](CCC(=O)NCCCOCCOCCOCCCNC(=O)CCC(=O)NCCCOCCOCCOCCCNC(=O)CCC(=O)NCCCOCCOCCOCCCNC(=O)CCC(=O)NCCCC[C@H](NC(=O)CNC(=O)[C@H](CCC(=O)O)NC(=O)C(C)(C)NC(=O)C(C)(C)NC(=O)[C@@H](NC(=O)[C@H](CCCCNC(C)=O)NC(=O)[C@H](C)NC(=O)[C@H](CCCNC(=N)N)NC(=O)[C@@H](NC(=O)[C@H](CCCCN)NC(=O)[C@H](CCC(=O)O)NC(=O)[C@H](CCCNC(=N)N)NC(=O)CNC(=O)[C@H](CCC(=O)O)NC(=O)[C@H](CC(C)C)NC(C)=O)C(C)C)[C@@H](C)CC)C(=O)N[C@@H](CO)C(=O)N[C@H](C(=O)N[C@@H](Cc1ccccc1)C(=O)N[C@@H](CO)C(=O)N[C@@](C)(CCCCN)C(=O)N[C@@H](CCCNC(=N)N)C(=O)N[C@@H](C)C(=O)N[C@@H](CCCCNC(C)=O)C(N)=O)[C@@H](C)O)C(=O)O)C(=O)O)C(=O)O` [SEQ ID NO: 3, Ac-L-E-G-R-E-K-V-R-A-K(Ac)-I-Aib-Aib-E-G-K(TTDS-TTDS-TTDS-gE-gE-gE-Palm)-S--T-F-S-Mly-R-A-K(Ac)-NH2] (Ac-LEGREKVRAK(Ac)I[Aib][Aib]EGK([Suc-X1])STFS[αMeK]RAK(Ac)-NH2), the AUC(0-inf) ([1]; Normal renal function group, mean, N=2) was 12900 ng·h/mL, the Cmax ([1]; Normal renal function group, mean, N=2, read-out: Cmax) was 302 ng/mL and the AUC(0-inf) ([1]; Severe renal impairment group, mean, N=5) was 17000 ng·h/mL. It also gave a Cmax ([1]; Severe renal impairment group, mean, N=5, read-out: Cmax) of 392 ng/mL, a Cmax ([1]; normal group, read-out: Mean Cmax) of 302 ng/mL and a Cmax ([1]; severe renal impaired group, read-out: Mean Cmax) of 392 ng/mL. The “increase of mean AUCinf” value [1, 5] was 14-31%, the “increase of mean Cmax” value [1, 5] was 10-30% and the tolerability and safety ([2]; part A: single sc 1.0, 4.0, 12.0, 24, 48 mg and single iv 4.0 mg) was “well tolerated and safe”. For the same compound, the “severity of reported adverse events” value ([2]; part A: single sc 1.0-48 mg and iv 4.0 mg) was “mild (grade 1)”, the “severity of reported adverse events” value [2, 6] was “mild (grade 1)” and the tolerability and safety [2, 6] was “well tolerated and safe”. For the same compound, the tolerability and safety ([3]; 5 subjects severe renal impairment and 2 normal renal function) was “well tolerated and safe”, the “severity of reported adverse events” value ([3]; two AEs (palpitation, headache) in one subject) was “grade 1 (mild)” and the “AUCinf after iv administration as compared to sc administration” value ([4]; 4 mg single dose iv vs sc) was ~1.3 fold. The “Cmax after iv administration as compared to sc administration” value ([4]; 4 mg single dose iv vs sc) was “approximately 3.5 fold”, the accumulation ([4]; Day 14, all dose regimens (5 mg, 15 mg, 30 mg sc QD)) was “approximately 2.6 fold” and the “exposure higher than expected (higher than dose-proportional)” value ([4]; after 24 mg and 48 mg sc single doses) was “approximately 15%”. It also gave a bioavailability ([4]; human, in vivo, 4 mg, after sc administration, read-out: absolute bioavailability (F)) of ~76%, a Cmax ([4]; human, in vivo, iv, 4 mg, Group A2, single 4.0 mg iv, mean, N=6, read-out: Cmax) of 1240 ng/mL and a Cmax ([4]; human, in vivo, sc, 1 mg, Group A1, single 1.0 mg sc, mean, N=6, read-out: Cmax) of 82.9 ng/mL. It also gave a Cmax ([4]; human, in vivo, sc, 4 mg, Group A2, single 4.0 mg sc, mean, N=6, read-out: Cmax) of 356 ng/mL, an AUC(0-t) ([4]; human, in vivo, sc, 5 mg, Group B1, 5 mg sc QD, Day 1, mean, N=6) of 7790 ng·h/mL and a Cmax ([4]; human, in vivo, sc, 5 mg, Group B1, 5 mg sc QD, Day 1, mean, N=6, read-out: Cmax) of 384 ng/mL. The Cmax ([4]; human, in vivo, sc, 5 mg, Group B1, 5 mg sc QD, Day 14, mean, N=6, Table 6, read-out: Cmax) was 1020 ng/mL, the Cmax ([4]; human, in vivo, sc, 5 mg, Group B1, 5 mg sc QD, Day 14, mean, N=6, Table 7, read-out: Cmax) was 1020 ng/mL and the AUC(0-t) ([4]; human, in vivo, sc, 5 mg, Group B1, 5 mg sc QD, Day 14, mean, N=6) was 21600 ng·h/mL. It also gave a Cmax ([4]; human, in vivo, sc, 12 mg, Group A3, single 12.0 mg sc, mean, N=6, read-out: Cmax) of 1000 ng/mL, an AUC(0-t) ([4]; human, in vivo, sc, 15 mg, Group B2, 15 mg sc QD, Day 1, mean, N=6) of 29600 ng·h/mL and a Cmax ([4]; human, in vivo, sc, 15 mg, Group B2, 15 mg sc QD, Day 1, mean, N=6, read-out: Cmax) of 1630 ng/mL. For the same compound, the Cmax ([4]; human, in vivo, sc, 15 mg, Group B2, 15 mg sc QD, Day 14, mean, N=6, Table 6, read-out: Cmax) was 3630 ng/mL, the Cmax ([4]; human, in vivo, sc, 15 mg, Group B2, 15 mg sc QD, Day 14, mean, N=6, Table 7, read-out: Cmax) was 3630 ng/mL and the AUC(0-t) ([4]; human, in vivo, sc, 15 mg, Group B2, 15 mg sc QD, Day 14, mean, N=6) was 67200 ng·h/mL. For the same compound, the Cmax ([4]; human, in vivo, sc, 24 mg, Group A4, single 24.0 mg sc, mean, N=6, read-out: Cmax) was 2360 ng/mL, the AUC(0-t) ([4]; human, in vivo, sc, 30 mg, Group B3, 30 mg sc QD, Day 1, mean, N=6) was 38400 ng·h/mL and the Cmax ([4]; human, in vivo, sc, 30 mg, Group B3, 30 mg sc QD, Day 1, mean, N=6, read-out: Cmax) was 2010 ng/mL. The Cmax ([4]; human, in vivo, sc, 30 mg, Group B3, 30 mg sc QD, Day 14, mean, N=6, Table 6, read-out: Cmax) was 6010 ng/mL, the Cmax ([4]; human, in vivo, sc, 30 mg, Group B3, 30 mg sc QD, Day 14, mean, N=6, Table 7, read-out: Cmax) was 6010 ng/mL and the AUC(0-t) ([4]; human, in vivo, sc, 30 mg, Group B3, 30 mg sc QD, Day 14, mean, N=6) was 118000 ng·h/mL. It also gave a Cmax ([4]; human, in vivo, sc, 48 mg, Group A5, single 48.0 mg sc, mean, N=6, read-out: Cmax) of 4560 ng/mL, a Cmax ([4]; human, in vivo, subcutaneous, 4 mg, SAD study after 4 mg, read-out: Mean Cmax) of 356 ng/mL and an AUC(0-inf) ([4]; human, in vivo, Group A1, single 1.0 mg sc, mean, N=6) of 3220 ng·h/mL. For the same compound, the AUC(0-inf) ([4]; human, in vivo, Group A2, single 4.0 mg iv, mean, N=6) was 19700 ng·h/mL, the AUC(0-inf) ([4]; human, in vivo, Group A2, single 4.0 mg sc, mean, N=6) was 15000 ng·h/mL and the AUC(0-inf) ([4]; human, in vivo, Group A3, single 12.0 mg sc, mean, N=6) was 37100 ng·h/mL. It also gave an AUC(0-inf) ([4]; human, in vivo, Group A4, single 24.0 mg sc, mean, N=6) of 78600 ng·h/mL, an AUC(0-inf) ([4]; human, in vivo, Group A5, single 48.0 mg sc, mean, N=6) of 178000 ng·h/mL and an AUC(0-inf) ([4]; human, in vivo, Group B1, 5 mg sc QD, Day 14, mean, N=6) of 50300 ng·h/mL. It also gave a half-life ([4]; human, in vivo, Group B1, 5 mg sc QD, Day 14, mean, N=6, read-out: T½ (converted)) of 23.4 h, an AUC(0-inf) ([4]; human, in vivo, Group B2, 15 mg sc QD, Day 14, mean, N=6) of 143000 ng·h/mL and a half-life ([4]; human, in vivo, Group B2, 15 mg sc QD, Day 14, mean, N=6, read-out: T½ (converted)) of 22.9 h. The AUC(0-inf) ([4]; human, in vivo, Group B3, 30 mg sc QD, Day 14, mean, N=6) was 278000 ng·h/mL, the half-life ([4]; human, in vivo, Group B3, 30 mg sc QD, Day 14, mean, N=6, read-out: T½ (converted)) was 24.3 h and the half-life ([4]; human, in vivo, sc multiple ascending doses, read-out: Terminal half life) was 23 to 24 h. For the same compound, the “dose proportionality of exposures” value ([4]; multiple ascending sc doses, up to dose regimen of 30 mg) was “increased dose-proportionally” and the “dose proportionality of exposures” value ([4]; single ascending sc doses, up to a dose of 12 mg) was “increased dose-proportionally”.
